Reference: US12600714B2, “Substituted pyrazinecarboxamide compounds for treating diseases related to EGFR mutation” (WIGEN BIOMEDICINE TECHNOLOGY (SHANGHAI) CO., LTD., priority 2020, dated 2026)

These compounds were tested on EGFR (del19/T790M/C797S) (assay: HTRF inhibitory activity assay against EGFR (del19/T790M/C797S) enzyme).
Format: biochemical
Protocol: Inhibitory Activity Assay of the Compounds Disclosed Herein Against EGFR (del19/T790M/C797S), EGFR (L858R/T790M/C797S) or EGFR (WT) Enzymes
The inhibitory effects of the compounds against EGFR (del19/T790M/C797S), EGFR (L858R/T790M/C797S) or EGFR (WT) enzyme activity was determined by using HTRF. The procedures are as follows:
The WT or mutant EGFR proteins were incubated with a serially diluted compounds at 28° C. for 10 min followed by addition of biotin-labeled general tyrosine kinase (TK) substrate and ATP. The mixture was incubated at room temperature for 40 min for reaction. After the termination of the reaction, an Eu3+-Cryptate-labeled antibody against TK and streptavidin-XL665 were added and the mixture was incubated at room temperature for 60 min. The luminescences at 615 nm and 665 nm were detected and the ratio of 665/615 was calculated to quantify the level of TK substrate phosphorylation. Inhibition % and IC50 of the compounds were calculated relative to the control group.

| SMILES | EGFR (del19/T790M/C797S) inhibition (%) (0.3 nM compound) |
| --- | --- |
| CN1CCN(C2CCN(c3ccc(Nc4nc(NC5CC6(COC6)C5)c(-c5ccncc5)nc4C(N)=O)cc3F)CC2)CC1 [compound 634] | +++ (+++ indicates an inhibition greater than 50%.) |
| CN1CCN(C2CCN(c3ccc(Nc4nc(NC5CCCC5)c(-c5ccncc5)nc4C(N)=O)cc3F)CC2)CC1 [compound 641] | +++ (+++ indicates an inhibition greater than 50%.) |
| COc1cc(N2CCC(N3CCN(C)CC3)CC2)ccc1Nc1nc(NC2CCOCC2)c(-c2ccccc2)nc1C(N)=O [compound 113] | + (+ indicates an inhibition less than or equal to 20%) |
| CN1CCN(C2CCN(c3ccc(Nc4nc(NC5CCOCC5)c(-c5ccc(N)cc5)nc4C(N)=O)cc3)CC2)CC1 [compound 95] | ++ (++ indicates an inhibition from 20% to 50%) |
| CN1CCN(C2CCN(c3ccc(Nc4nc(N[C@@H]5CCC[C@@H]5O)c(-c5ccccc5)nc4C(N)=O)cc3)CC2)CC1 [compound 133] | ++ (++ indicates an inhibition from 20% to 50%) |
| CN1CCN(C2CCN(c3ccc(Nc4nc(NC5CCOCC5)c(-c5ccnn5C)nc4C(N)=O)cc3)CC2)CC1 [compound 50] | + (+ indicates an inhibition less than or equal to 20%) |
| CN1CCN(C2CCN(c3ccc(Nc4nc(NC5CC6(COC6)C5)c(-c5cc[nH]n5)nc4C(N)=O)cc3)CC2)CC1 [compound 627] | ++ (++ indicates an inhibition from 20% to 50%) |
| CN(C)CCCNc1nc(Nc2ccc(N3CCC(N4CCN(C)CC4)CC3)cc2)c(C(N)=O)nc1-c1ccccc1 [compound 117] | + (+ indicates an inhibition less than or equal to 20%) |
| CN1CCN(C2CCN(c3ccc(Nc4nc(NC5CCOCC5)c(-c5ccc(S(C)(=O)=O)cc5)nc4C(N)=O)cc3)CC2)CC1 [compound 46] | + (+ indicates an inhibition less than or equal to 20%) |
| CN1CCN(C2CCN(c3ccc(Nc4nc(N[C@@H]5CCOC5)c(-c5ccccc5)nc4C(N)=O)cc3)CC2)CC1 [compound 66] | + (+ indicates an inhibition less than or equal to 20%) |
| CN1CCN(C2CCN(c3ccc(Nc4nc(NC5CC6(CCOCC6)C5)c(-c5ccccn5)nc4C(N)=O)cc3)CC2)CC1 [compound 271] | ++ (++ indicates an inhibition from 20% to 50%) |
| CN1CCN(C2CCN(c3ccc(Nc4nc(NC5CCCC5O)c(-c5cc[nH]n5)nc4C(N)=O)cc3)CC2)CC1 (centres unmarked) [compound 618] | ++ (++ indicates an inhibition from 20% to 50%) |
| CN1CCN(C2CCN(c3ccc(Nc4nc(NC5CCOCC5)c(-c5cccc(C(F)F)c5)nc4C(N)=O)cc3)CC2)CC1 [compound 105] | + (+ indicates an inhibition less than or equal to 20%) |
| CN1CCN(C2CCN(c3ccc(Nc4nc(NC5CCOCC5)c(-c5cccc(O)c5)nc4C(N)=O)cc3)CC2)CC1 [compound 43] | + (+ indicates an inhibition less than or equal to 20%) |
| [2H]C([2H])([2H])N1CCN(C2CCN(c3ccc(Nc4nc(NC5CCOCC5)c(-c5ccccn5)nc4C(N)=O)cc3)CC2)CC1 [compound 206] | ++ (++ indicates an inhibition from 20% to 50%) |
| CN1CCN(C2CCN(c3ccc(Nc4nc(NC5CCOC6(CC6)C5)c(-c5ccccn5)nc4C(N)=O)cc3)CC2)CC1 (centres unmarked) [compound 263] | ++ (++ indicates an inhibition from 20% to 50%) |
| CN1CCN(C2CCN(c3ccc(Nc4nc(NC5CCOCC5)c(-c5ccc(C#N)cc5)nc4C(N)=O)cc3)CC2)CC1 [compound 53] | + (+ indicates an inhibition less than or equal to 20%) |
